From patent US20250367283A1, “MEVALONATE PATHWAY INHIBITOR AS HIGHLY-EFFICIENT VACCINE ADJUVANT” (Tsinghua University, priority 2015, published 2025)
Like-named read-outs stand apart in the source and are kept apart here.

Assays:
[1] = test system: anti-OVA IgM and IgG antibodies; test: Combined adjuvant effect of FPPS inhibitor and TLR agonist, OVA titer; assay type: in vivo, mice; conditions: soles of right feet
Method: Two compounds, TH-Z93 and Imiquimod, were formulated at a concentration of 4 mg/ml, and OVA antigen at a concentration of 10 mg/ml. When used alone, 5 μl of TH-Z93 or imiquimod was added as an adjuvant and mixed with 10 μl of antigen and 5 μl of PBS. When two adjuvants were used in combination, each of the adjuvants were added in an amount of 5 μl and mixed with 10 μl of antigen, and the total volumes were 20 μl. The mice used are of C57B/6 strain. An equal volume of PBS without any adjuvant was used for mice in the control group. The mice was injected at the soles of the right feet. On Day 7 and Day 14 after immunization, blood was taken from the mice's orbits, and 100 μl was taken for each mouse. The obtained blood was left at 4° C. overnight, and then the serum was separated. The titers of anti-OVA IgM and IgG antibodies in the serum were determined.

[2] = biological target: HsGGPPS (humanized geranylgeranyl pyrophosphate synthase) (Homo sapiens (Human), UniProt O95749); test: HsGGPPS enzyme inhibition test; assay type: biochemical
Method: The inhibitory activities of compounds TH-Z144 and TH-Z145 on GGPPS (geranylgeranyl pyrophosphate synthase) were tested by referring to the expression and purification method for HsGGPPS (humanized geranylgeranyl pyrophosphate synthase) in the reference (Szabo, C. M., et al., Inhibition of Geranylgeranyl Diphosphate Synthase by Bisphosphonates and Diphosphates: A Potential Route to New Bone Antiresorption and Antiparasitic Agents. Journal of Medicinal Chemistry, 2002. 45 (11): p. 2185-2196.) and the method for testing enzyme activity in the reference (Zhang, Y., et al., Lipophilic Bisphosphonates as Dual Farnesyl/Geranylgeranyl Diphosphate Synthase Inhibitors: An X-ray and NMR Investigation. Journal of the American Chemical Society, 2009. 131 (14): p. 5153-5162.) The data of the activity test were as follows: […]

[3] = test system: anti-OVA IgM and IgG antibodies; test: OVA evaluation system: adjuvant activity in antibody titer in mice; assay type: in vivo; conditions: GGPPS inhibitors 100 μg with OVA, right sole, Day 7 and Day 14
Method: OVA evaluation system was used to determine adjuvant activity in antibody titer.
Mice of C57B/6 strain were used. The mice in the experimental group were injected with the obtained mixture of each of the statins and OVA antigen through soles injection, with 20 μl for each mouse. The mice in the control group were injected with a 1:1 mixture of PBS or DMSO (10 μl) and 10 μl OVA antigen (PBS or DMSO is 10 μl, respectively, and the antigen is 10 μl) through soles injection, with 20 μl for each mouse. On Day 7 and Day 14 after immunization, blood was taken from the mice's orbits, with 100 μl was taken from each mouse. The obtained blood was left at 4° C. overnight, and centrifuged at 6000 rpm for 8 min. The supernatant serum was removed and the titers of anti-OVA IgM and IgG antibodies in the serum were determined.
Test of the OVA antibody titer: The OVA protein was diluted to a concentration of 2 μg/ml with a carbonate solution of pH 9.6, coated in a 96-well ELISA plate at 50 μl per well, and left at 4° C. overnight. The ELISA plate was washed five times with PBS containing 0.05% Tween 20, blocked with 1% BSA solution at 200 μl per well, and incubated at room temperature for 2 h. The ELISA plate was washed five times with PBST (Phosphate Buffered Saline with Tween), a 2-fold serial dilution of the mouse serum after immunized with OVA was added at 50 μl per well and incubated at room temperature for 2 h. After the ELISA plate was washed five times with PBST, HRP (horseradish peroxidase)-labeled goat-anti-mouse IgM or IgG antibody was added and incubated at room temperature for 45 min. The ELISA plate was washed five times with PBST, and a color developing solution of sodium citrate OPD (o-phenylenediamine) was added. After 10 min of color development in the dark, sulfuric acid was added to terminate the reaction. The reading was performed with ELIASA OD490. The maximum serum dilution factor, when the ratio of light absorptions of the experimental group to the control group was >2.0, was the titer of the anti-OVA antibody in the serum.
Each test compound was formulated at a concentration of 2 mg/ml and the concentration of OVA antigen was 2 mg/ml. Each compound was mixed with OVA at 1:1. Each C57B/6 mouse in the experimental group was injected with 100 μl of the mixture (containing 50 μl of the antigen and 50 μl of the compound) by intramuscular injection at the right thigh. On Day 7 and Day 14 after immunization, blood was taken from the mice's orbit, and 100 μl was taken for each mouse. The obtained blood was allowed to stand at 4° C. overnight, and centrifuged at 6000 rpm for 8 min. The supernatant serum was removed, and the titers of anti-OVA IgM and IgG antibodies in the serum were determined.
Method: each of the test compounds (the 10 bisphosphonates as described above) was mixed with the OVE antigen at 1:1, and the concentrations of bisphosphonic acid and OVA were both 10 mg/ml. Mice of C57B/6 strain were used. The mice in the experimental group were injected with the mixture of each of the test compounds and OVA antigen through soles injection, with 20 μl for each mouse, and wherein the amounts of OVA antigen and each of the test compounds were both 100 ug. The mice in the control group were injected with a 1:1 mixture of […] and 10 μl OVA antigen through sole injection. On Day 7 and Day 14 after immunization, blood was taken from the mice's orbits, and 100 μl was taken from each mouse.
The obtained blood was left at 4° C. overnight, and centrifuged at 6000 rpm for 8 min. The supernatant serum was removed, and the titers of anti-OVA IgM and IgG antibodies in the serum were determined.
Method: TH-Z144 and TH-Z145 were prepared at the concentration of 10 mg/ml, the concentration of OVA antigen was also 10 mg/ml, and the compound and the antigen were mixed at 1:1. Mice of C57B/6 strain were used.

[4] = biological target: humanized farnesyl pyrophosphate synthase (HsFPPS) (Homo sapiens (Human), UniProt P14324); test: In vitro HsFPPS enzyme activity assay; assay type: biochemical
Method: The measurement method is briefly described as follows: the expression of HsFPPS with 6 consecutive His at the N-terminus was induced in vitro, collected, and purified by Ni column. An in vitro HsFPPS enzyme activity assay was performed in a 96-well plate with 200 μl of solution per well. The buffer of the system was 25 mM HEPES, 2.5 mM MgCl2, pH 7.4. Using DMAPP and IPP as reaction substrates, the change of the UV value at a wavelength of 360 nm was monitored in real time in a phosphate lyase system. The ORIGIN 8.0 software was used to plot and fit. The IC50 values for the inhibition of FPPS by the TH-Z80 series of compounds were shown in the following table, in micromoles per liter (μM).
(§1) HsFPPs with 6 consecutive His at the N-terminus was induced to express in vitro, collected, and purified by Ni column. In vitro HsFPPs enzymatic activity assay was performed in a 96-well plate at 200 μl of solution per well. The buffer of the system was 25 mM HEPES, 2.5 mM MgCl2, pH 7.4. Using DMAPP and IPP as reaction substrates, the changes of UV at 360 nm were monitored in real-time in phosphate lyase system. ORIGIN 8.0 software was used to plot and fit.

[5] = test system: PvGGPPS (geranylgeranyl pyrophosphate synthase from Plasmodium); test: In vitro PvGGPPS enzymatic activity assay; assay type: biochemical; conditions: GPP and IPP substrates
Method: as §1, with “PvGGPPs” for “HsFPPs”, “GPP” for “DMAPP”, “a” for “the changes of UV at”, “continuous spectrophotometric detection was performed” for “were monitored”, “a” for “real-time in”

MDA-MB-231 cells = test: MDA-MB-231 proliferation MTT test; assay type: cell-based, human; conditions: 72 hours
Method: • Drug dissolution: […] The prepared bisphosphonate stock solution was diluted with DMEM complete medium. The maximum concentration was 1 mM. The dilution was performed serially in a ratio of 1:3.2 with a total of 11 concentration gradients; a. MDA-MB-231 cells were digested the day before. Centrifugation was performed at 1000 rmp for 3 min. The cells were counted. The cells were seeded into a 96-well plate at 3000 cells/well in a volume of 100 μl per well and cultured for 14-16 h. It should be noted that the cell count should be accurate, and the amount of cells seeded per well should be consistent. The cell suspension can be gently shaken in the intermittence of plating, or a row of cells were plated and the cell suspension was pipetted gently with a pipette. The speed of pipetting into the 96-well plate with a pipette should not be too fast or too slow, in order to avoid uneven distribution of cells in the plate, affecting the experiments; the wells at the fringe of the 96-well plate will evaporate slightly faster and the concentration of the solution will change slightly faster. Under normal situation, the central 60 wells should be selected for stimulation. Also, the pipetted liquid should be prevented from creating bubbles. b. After the cells had adhered, the liquid in the 96-well plate was pipetted out and discarded. […] c. 72 hours after the action of drug, the prepared MTT solution (immediately before use, a certain amount of MTT powder was weighed and dissolved in PBS at 5 mg/ml, under dark, filter with 0.22 filter membrane) was added directly to each well with 20 μl per well and continued to culture for 4 hours; d. The filter paper (which can be replaced by an absorbent paper) was laid, and the plate was inverted gently (be careful to prevent the crystal in the well from dropping). After the liquid in the wells was removed, 150 μl of DMSO was added to dissolve the crystals, and the mixture was shaken thoroughly with a shaker for a period of time just to dissolve the crystals. The absorbance (OD value) of each well was measured at 570 nm with ELIASA. The mean value of blank control was calculated as OD Blank. OD value for each well=OD measured-OD Blank. ODNT mean value was calculated. […] Mean and standard error were then calculated. The mean and standard error of each group of drug concentration (uM) and corresponding drug inhibition rate were fitted by Graph Prism software to obtain the IC50 of the drug.

[6] = test system: Plasmodium falciparum 3D7; test: Test of plasmodium activity (SYBR-GREEN1); assay type: cell-based; conditions: infected erythrocytes, 72 hours; read-out: Malaria (IC50/μM)
Method: Plasmodium falciparum 3D7 was cultured with […] medium mixed with 10% human O-type blood serum and 25 mM HEPES. The cultivation process was maintained in a carbon dioxide incubator under 5% carbon dioxide. In vitro drug testing experiments were performed on a 96-well plate. The test drug was dissolved in PBS and pre-diluted with complete medium. Infected erythrocytes were cultured in triplicate for 72 hours in 3-fold serial dilutions of drug. Then an equal amount of SYBR-GREEN1 was added to each well. The detection was then performed at 485 nm for excitation light and 538 nm for emitted light. […] ORIGIN 8.0 software was used to plot and fit.

Sequence of humanized farnesyl pyrophosphate synthase (HsFPPS) (P14324 whole entry, looked up): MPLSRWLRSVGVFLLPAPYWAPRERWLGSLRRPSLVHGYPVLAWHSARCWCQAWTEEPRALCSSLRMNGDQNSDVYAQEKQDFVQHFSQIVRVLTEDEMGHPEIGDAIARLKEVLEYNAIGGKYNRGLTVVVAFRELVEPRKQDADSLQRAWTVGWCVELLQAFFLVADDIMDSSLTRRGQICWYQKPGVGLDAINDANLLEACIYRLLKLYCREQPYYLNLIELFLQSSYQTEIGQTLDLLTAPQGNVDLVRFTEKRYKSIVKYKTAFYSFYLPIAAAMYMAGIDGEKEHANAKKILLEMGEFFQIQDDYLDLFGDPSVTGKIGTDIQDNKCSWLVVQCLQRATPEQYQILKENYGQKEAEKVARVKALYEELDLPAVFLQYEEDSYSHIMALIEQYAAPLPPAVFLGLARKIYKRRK
Sequence of HsGGPPS (humanized geranylgeranyl pyrophosphate synthase) (O95749 whole entry, looked up): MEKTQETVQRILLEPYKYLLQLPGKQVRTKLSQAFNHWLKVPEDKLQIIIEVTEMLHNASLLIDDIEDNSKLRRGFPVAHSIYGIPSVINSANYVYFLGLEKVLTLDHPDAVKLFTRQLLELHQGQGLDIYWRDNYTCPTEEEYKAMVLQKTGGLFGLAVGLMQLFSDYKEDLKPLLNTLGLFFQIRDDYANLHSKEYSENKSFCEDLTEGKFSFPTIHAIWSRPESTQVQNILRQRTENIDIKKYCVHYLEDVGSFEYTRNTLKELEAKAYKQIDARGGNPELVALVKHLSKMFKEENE

Question: How did the “antibody titers vs PBS control, adjuvant used alone” value [1] turn out when `CC(C)Cn1cnc2c(N)nc3ccccc3c21` [imiquimod, reference compound] was run?
Answer: significant high titers

Question: Which results are given for `CCCCCCOc1cccc(CC(P(=O)(O)O)P(=O)(O)O)c1` [TH-Z144, (2-(3-(hexyloxy)phenyl)ethane-1,1-diyl)bisphosphonic acid]?
Answer: IC50 (inhibition of GGPPS) [2]: effectively inhibit the activity of GGPPS; IC50 ([2]; read-out: IC50 (inhibition of GGPPS)): 2760 nM; IgM and IgG antibody titers vs PBS control [3]: significantly higher titers

Question: `COc1ccc2c(c1)ncn2CC(O)(P(=O)(O)O)P(=O)(O)O` [TH-Z79] was tested. Which IC50 ([4]; Example 15 table, read-out: HsFPPS (IC50/μM)) did it give?
Answer: 0.1 to 0.3 µM

Question: And the IC50 ([4]; TH-Z80 series, DMAPP and IPP substrates, pH 7.4, read-out: IC50 for inhibition of FPPS)?
Answer: 0.1 to 0.3 µM

Question: And the IC50 [5]?
Answer: 0.61 µM

Question: What about the IC50 (MDA-MB-231 cells) of the same compound?
Answer: 50900 nM

Question: And the IC50 [6]?
Answer: 0.96 µM
